From ChEMBL document CHEMBL1201862, “PubChem BioAssay data set” (2004) come the findings set out here.

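How tested: cells in 96-well plates exposed to compound for 48 hours at five concentrations. GI50 = concentration required for 50% inhibition of growth.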 Activity calls are given as the source filed them. Cut-off read from the data, not from the text of the source: active = GI50 up to about 1.1 µM and inactive = higher. A value given as a limit tells only on which side of the number the result lay.

What all share (assay): growth of human tumour cells (NCI), 48 h
The test system of assay [1] is CAKI-1.
Assay [2] concerns CCRF-CEM.
The test system of assay [3] is HL-60.
Assay [4] concerns HT-29.
For assay [5], the system named is K562.
The subject of assay [6] is Malme-3M.
In assay [7] the test system is NCI-H226.
In assay [8] the test system is NCI-H23.
The test system of assay [9] is OVCAR-4.
The subject of assay [10] is OVCAR-8.
For assay [11], the system named is RPMI-8226.
In assay [12] the test system is RXF 393.
In assay [13] the test system is SK-MEL-2.
Assay [14] deals with SN12C.
Assay [15] concerns TK-10.
Assay [16] concerns U-251.
The test system of assay [17] is UACC-62.
Assay [18] concerns A549.
Assay [19] has as its system EKVX.
Assay [20] has as its system NCI-H522.

`O=c1ccn(COC(COCc2ccccc2)COCc2ccccc2)c(=O)[nH]1`: the GI50 was > 100 µM (inactive) in assay [1]; > 100 µM (inactive) in assay [2]; 85.7 µM (inactive) in assay [3]; > 100 µM (inactive) in assay [4]; > 100 µM (inactive) in [5]; > 100 µM (inactive) in assay [6]. Also, the GI50 in assay [7], in [8], in assay [9], in assay [10], in assay [11] and in assay [12] was > 100 µM (inactive) throughout. Moreover, the GI50 in [13] is > 100 µM (inactive); in assay [14], > 100 µM (inactive); in assay [15], > 100 µM (inactive); in assay [16], > 100 µM (inactive); in assay [17] it was 86.9 µM (inactive).

`CCC(C(=O)O)c1ccc(OC)cc1` (centres undefined): the GI50 in [18], in [1], in assay [2], in [19], in assay [3] and in [4] was > 100 µM (inactive) throughout. The GI50 in assay [5], in assay [6], in assay [7], in assay [8], in assay [20] and in assay [9] was > 100 µM (inactive) in each case. Besides, the GI50 in assay [11], in assay [12], in assay [13], in assay [14], in assay [15] and in assay [16] was > 100 µM (inactive) throughout. The GI50 in [17] is > 100 µM (inactive).

Turning to `COc1ccc(C[C@H](N)C(=O)N2C[C@H](CO)C[C@H](n3ccc(=O)[nH]c3=O)C2)cc1`, the GI50 in [18] was > 100 µM (inactive); in assay [1] it was > 100 µM (inactive); in [2], > 100 µM (inactive); in assay [19] it was > 100 µM (inactive); in [3] it was 58.3 µM (inactive); in [4], > 100 µM (inactive). Besides, the GI50 in [5], in assay [6], in assay [7], in assay [8], in assay [20] and in assay [9] was > 100 µM (inactive) throughout. For the same molecule, the GI50 in [10], in assay [11], in [12], in assay [13], in assay [14] and in [15] was > 100 µM (inactive) each time. Also, the GI50 in assay [16] and in assay [17] was > 100 µM (inactive) each time.

In the case of `O=C1Sc2sc(=S)sc2SC1c1ccccc1` (centres undefined), the GI50 in assay [18] is > 100 µM (inactive); in assay [1], 1 µM (active); in assay [2], 33 µM (inactive); in assay [19], > 100 µM (inactive); in [3], 20 µM (inactive); in assay [4] it was 40.8 µM (inactive). The GI50 in assay [5] is 32.7 µM (inactive); in [6], > 49.3 µM (inactive); in assay [7], > 81.8 µM (inactive); in assay [8] it was 82.6 µM (inactive); in assay [20] it was 14.2 µM (inactive); in assay [9], 18.3 µM (inactive). Moreover, the GI50 was 59 µM (inactive) in assay [10]; 46.9 µM (inactive) in assay [11]; 28.4 µM (inactive) in assay [12]; > 65 µM (inactive) in assay [13]; > 89.7 µM (inactive) in assay [14]; 52.5 µM (inactive) in assay [16]. Moreover, in assay [17], the GI50 was 26.8 µM (inactive).

For `OC[C@H]1O[C@@H](n2cnc3cncnc32)[C@H](O)[C@@H]1O` [NEBULARINE], the GI50 is 0.904 µM (active) in assay [18]; 0.423 µM (active) in [1]; 1.32 µM (inactive) in assay [2]; 0.605 µM (active) in assay [19]; 0.326 µM (active) in assay [3]; 0.377 µM (active) in [4]. Moreover, the GI50 in assay [5] was 0.679 µM (active); in [6], 2.03 µM (inactive); in assay [7], 1.34 µM (inactive); in assay [8], 1.75 µM (inactive); in assay [20], 2.1 µM (inactive); in assay [9] it was 1.12 µM (inactive). The GI50 in [10] was 1.17 µM (inactive); in assay [11], 0.714 µM (active); in [12], 1.31 µM (inactive); in assay [13], 1.67 µM (inactive); in assay [14], 1.4 µM (inactive); in assay [16], 1.63 µM (inactive). For the same molecule, the GI50 in [17] is 1.16 µM (inactive).
